From patent US10513519B2, “Solid forms of (1S,4S)-4-(2-(((3S,4R)-3-fluorotetrahydro-2H-pyran-4-yl)amino)-8-((2,4,6-trichlorophenyl)amino)-9H-purin-9-yl)-1-methylcyclohexane-1-carboxamide and methods of their use” (Signal Pharmaceuticals, LLC, priority 2016, dated 2019)
Converted amounts (≈) assume the structure as drawn. Like-named read-outs stand apart in the source and are kept apart here. Blank lines part the entries; values can stand above or below the compound they belong to.

Legend:
[1] = Compression test (2000-psi pressure); format: physicochemical; conditions: 2000-psi pressure for about 1 minute
[2] = Dynamic vapor sorption (hygroscopicity); format: physicochemical; conditions: for hygroscopicity (in words): DVS; for water uptake: between 0 and 90% RH; for DVS wt gain: @ 95% RH, Compound 1 HCl salt forms; for DVS water uptake: up to 90% RH, Compound 1 citrate salt polymorphs
Protocol: Dynamic vapor sorption (DVS) was measured using DVS advantage (Surface Measurement Systems Ltd). The samples were tested under isotherm (25° C.) at a targeted RH of 0 to 95% full cycle in step mode. For an isotherm test, the chamber temperature was maintained by a water bath at constant 25.0±1.0° C. The relative humidity in the sample chamber was generated by combining different flows of wet and dry nitrogen with variable flow rates. The analysis was performed in 10% RH increments. Sampling rate was 1 sec save data rate is 20 sec. The dm/dt (%) value was set at 0.001 with a dm/dt window of 5 min., a minimum stability duration time of 10 min, and a maximum stage time of 180 min. The sample's equilibrium weight corresponding to each RH was recorded. A sorption isotherm was obtained by plotting equilibrium moisture content versus RH.
Hygroscopicity was determined on a Surface Measurement Systems DVS. A sample size of 5-20 mg was loaded into the DVS instrument sample pan and the sample was analyzed on a DVS automated sorption analyzer at room temperature. The relative humidity was increased from 0% to 90% RH at 10% RH step, then decreased in a similar manner to accomplish a full adsorption/desorption cycle.

[3] = Form conversion / form transfer experiments (humidity, drying, competitive slurries); format: physicochemical
Text: The thermodynamic relationship between the two forms was explored through form conversion experiments (Table 31).

[4] = Solid state stability of salt forms and free base; format: physicochemical
[5] = Solubility of salt forms and free base in water, SGF, SIF and 0.5% HPMC in […] Tween 80
[6] = Solubility in biorelevant media (FeSSIF, FaSSIF, FaSSGF, FeSSGF)
[7] = tested on: TEAD reporter (8×GTIIC-luciferase) in W138 VA13 cells; assay: TEAD reporter assay; format: cell-based; conditions: 24 or 72 hours
Protocol: TEAD reporter activity was analyzed using W138 VA13 cells stably expressing a YAP/TAZ responsive synthetic promoter driving luciferase expression (8×GTIIC-luciferase). 10,000 cells per well were seeded on a white-walled 96-well plate and left overnight. After 16-20 hours, cells were treated with compound and TEAD reporter activity was measured 24 or 72 hours later using Bright Glo luciferase assay (Promega) according to the manufacturer's instructions. This assay was performed 3 times for Compound 1 and twice for Trametinib.

physchem [8] = conditions: FaSSGF, fassgf or other biorelevant
physchem [9] = conditions: simulated gastric fluid, thermodynamic from solid
[10] = Stability of free base in solution and in solid state under stress conditions; format: physicochemical
[11] = Approximate solubility in various solvents at room temperature; format: physicochemical
Protocol: (§1) The resulting mixture was agitated for about 1 day at room temperature. If all of the solids appeared to be dissolved by visual inspection, the estimated solubility was calculated based on the total volume of solvent used to give a complete solution. If solids were present, a known volume of filtrate was evaporated to dryness and the weight of the residue was measured to estimate the solubility.
as §1, with “for” for “for about”

[12] = Approximate solubility of HCl salt starting material in selected organic solvents; format: physicochemical; conditions: room temperature
Protocol: Solubility of the starting mater in selected organic solvents was determined by mixing with selected solvents at room temperature.

Compound: Citrate
hygroscopicity (in words) [2]: low hygroscopicity

Compound: CC1(C(N)=O)CCC(n2c(Nc3c(Cl)cc(Cl)cc3Cl)nc3cnc(NC4CCOCC4F)nc32)CC1.Cl.O (centres unmarked) [HCl Salt]
hygroscopicity with respect to monohydrate ([2]; 0-95% RH): < 1.0% | hygroscopicity (in words) [2]: low hygroscopicity | remaining water released ([2]; from 5% RH to dry): ~2.8 % wt | additional moisture sorption ([2]; from 25 to 95% RH): ~1.7% | loss of water content during desorption cycle ([2]; from 95 down to 5% RH): ~1.5% | solid state stability (in words) [4]: chemically and physically stable in solid state | Chemical (40° C./75% RH) RRT = 2.2 ([4]; 40° C./75% RH): 0.02% | Physical (40° C./75% RH) ([4]; 40° C./75% RH): Stable | Chemical (60° C.) RRT2.2 [4]: 0.05% | Physical (60° C.) [4]: Stable | pH at final ([5]; 0.5% HPMC/[…] Tween80): 3.06 | pH at final ([5]; SGF): 1.17 | pH at final ([5]; SIF): 7.22 | pH at final ([5]; Water): 3.65 | pH ([6]; FaSSGF): 1.82 | pH ([6]; FaSSIF): 6.12 | pH ([6]; FeSSGF): 5.66 | pH ([6]; FeSSIF): 4.85

Compound: CC1(C(N)=O)CCC(n2c(Nc3c(Cl)cc(Cl)cc3Cl)nc3cnc(NC4CCOCC4F)nc32)CC1.Cl.O (centres unmarked) [Form 7]
DVS wt gain [2]: ~4.5% wt

Compound: CC(=O)Nc1cccc(-n2c(=O)n(C3CC3)c(=O)c3c(Nc4ccc(I)cc4F)n(C)c(=O)c(C)c32)c1 [Trametinib, reference compound]
inhibition of TEAD reporter activity [7]: did not inhibit

Compound: C[C@]1(C(N)=O)CC[C@@H](n2c(Nc3c(Cl)cc(Cl)cc3Cl)nc3cnc(N[C@@H]4CCOC[C@H]4F)nc32)CC1 [amorphous]
reversible weight change ([2]; between 10 and 50% RH): about 3.5% | DVS water uptake up to 90 % RH [2]: 6.9 wt % water

Compound: C[C@]1(C(N)=O)CC[C@@H](n2c(Nc3c(Cl)cc(Cl)cc3Cl)nc3cnc(N[C@@H]4CCOC[C@H]4F)nc32)CC1 [Free Base]
solubility (physchem [8]): 3.85 mg/mL (≈ 6.74 mM) | hygroscopicity (in words) ([2]; listed as monohydrate free base): slightly hygroscopicity | solubility thermodynamic at 24 h (physchem [9]): 3.48 mg/mL (≈ 6.1 mM) | Conc. at 24 Hrs: 3 µg/mL | Conc. at 24 Hrs (pH 4.23): 178 µg/mL | solid state stability (in words) [4]: chemically and physically stable in solid state | Physical (40° C./75% RH) ([4]; 40° C./75% RH): Stable | Chemical (60° C.) RRT2.2 [4]: <0.03% | Physical (60° C.) [4]: Dehydration (−), | pH at final ([5]; 0.5% HPMC/[…] Tween80): 4.23 | pH at final ([5]; SGF): 1.93 | pH at final ([5]; SIF): 7.33 | pH at final ([5]; Water): 8.11 | temperature above which crystal form of monohydrate changes [10]: > 60 °C | stability in solution ([10]; pH 1.2 to 7.5, 40° C.): stable | chemical and physical stability in solid state under stress conditions ([10]; solid state, stress conditions): up to seven weeks | pH ([6]; FaSSGF): 2.77 | pH ([6]; FaSSIF): 6.37 | pH ([6]; FeSSGF): 6.23 | pH ([6]; FeSSIF): 4.95

Compound: C[C@]1(C(N)=O)CC[C@@H](n2c(Nc3c(Cl)cc(Cl)cc3Cl)nc3cnc(N[C@@H]4CCOC[C@H]4F)nc32)CC1 [Form A]
weight change ([2]; between 10 and 30% RH): over 3% | additional water uptake ([2]; between 30-90% RH): approximately 1.4 wt % | DVS water uptake up to 90 % RH ([2]; listed as A): 4.7 wt % water | Resulting Form ([3]; no solvent, RT and 0% RH 6 days): B + A | solubility at 1 day ([11]; 1,4-dioxane, organic solvent or mixture, thermodynamic from solid, 1,4-dioxane): > 50 mg/mL | solubility at 1 day ([11]; 2-MeTHF, organic solvent or mixture, thermodynamic from solid): > 50 mg/mL | solubility at 1 day ([11]; DCM, organic solvent or mixture, thermodynamic from solid): > 50 mg/mL | solubility at 1 day ([11]; EtOAc, organic solvent or mixture, thermodynamic from solid): > 100 mg/mL | solubility at 1 day ([11]; EtOH, organic solvent or mixture, thermodynamic from solid): > 20 mg/mL | solubility at 1 day ([11]; EtOH/water (1:1), aqueous with cosolvent or surfactant or cyclodextrin, thermodynamic from solid, EtOH/water (1:1)): > 3 mg/mL | solubility at 1 day ([11]; IPA, organic solvent or mixture, thermodynamic from solid): > 10 mg/mL | solubility at 1 day ([11]; IPAc, organic solvent or mixture, thermodynamic from solid): > 50 mg/mL | solubility at 1 day ([11]; MEK, organic solvent or mixture, thermodynamic from solid): > 50 mg/mL | solubility at 1 day ([11]; MIBK, organic solvent or mixture, thermodynamic from solid): > 50 mg/mL | solubility at 1 day ([11]; MTBE, organic solvent or mixture, thermodynamic from solid): > 20 mg/mL | solubility at 1 day ([11]; MeCN, organic solvent or mixture, thermodynamic from solid): > 3 mg/mL | solubility at 1 day ([11]; MeCN/water (1:1), aqueous with cosolvent or surfactant or cyclodextrin, thermodynamic from solid, MeCN/water (1:1)): > 50 mg/mL | solubility at 1 day ([11]; MeOAc, organic solvent or mixture, thermodynamic from solid): > 100 mg/mL | solubility at 1 day ([11]; MeOH, organic solvent or mixture, thermodynamic from solid): > 50 mg/mL | solubility at 1 day ([11]; THF, organic solvent or mixture, thermodynamic from solid): > 100 mg/mL | solubility at 1 day ([11]; THF/water (1:1), aqueous with cosolvent or surfactant or cyclodextrin, thermodynamic from solid, THF/water (1:1)): > 50 mg/mL | solubility at 1 day ([11]; acetone, organic solvent or mixture, thermodynamic from solid): > 100 mg/mL | solubility at 1 day ([11]; heptane, organic solvent or mixture, thermodynamic from solid): < 1 mg/mL | solubility at 1 day ([11]; n-BuOH, organic solvent or mixture, thermodynamic from solid): > 20 mg/mL | solubility at 1 day ([11]; toluene, organic solvent or mixture, thermodynamic from solid): > 10 mg/mL | solubility at 1 day ([11]; water, thermodynamic from solid): < 1 mg/mL

Compound: CC1(C(N)=O)CCC(n2c(Nc3c(Cl)cc(Cl)cc3Cl)nc3cnc(NC4CCOCC4F)nc32)CC1.Cl.O (centres unmarked) [Form 8]
DVS wt gain [2]: ~2% wt

More lines, now with the values ahead:

solid form after compression [1]: still Form Z | hygroscopicity (in words) [2]: slightly hygroscopic | water uptake [2]: about 1.6 % w/w
Compound: CC1(C(N)=O)CCC(n2c(Nc3c(Cl)cc(Cl)cc3Cl)nc3cnc(NC4CCOCC4F)nc32)CC1.O=C(O)CC(O)(CC(=O)O)C(=O)O (centres unmarked) [Form Z]

Resulting Form(s) ([3]; Slurry in EtOAc, RT, 5 days): Y + Z | Resulting Form(s) ([3]; Slurry in EtOAc, RT, 10 days): Y + Z | Resulting Form(s) ([3]; Slurry in Toluene, 50° C., 4 days): Z + Y | Resulting Form(s) ([3]; Slurry in Toluene, RT, 5 days): Z + Y | Resulting Form(s) ([3]; Slurry in Toluene, RT, 10 days): Z + Y
Compound: CC1(C(N)=O)CCC(n2c(Nc3c(Cl)cc(Cl)cc3Cl)nc3cnc(NC4CCOCC4F)nc32)CC1.O=C(O)CC(O)(CC(=O)O)C(=O)O (centres unmarked) [Y + Z]

Approximate Solubility ([12]; 2-MeTHF): S < 0.9 mg/mL | Approximate Solubility ([12]; DCM): S < 1.6 mg/mL | Approximate Solubility ([12]; DMAc): S > 18 mg/mL | Approximate Solubility ([12]; DMSO): S > 22 mg/mL | Approximate Solubility ([12]; EtOAc): S < 1.5 mg/mL | Approximate Solubility ([12]; EtOH): S > 28 mg/mL | Approximate Solubility ([12]; H2O): S < 1.0 mg/mL | Approximate Solubility ([12]; Heptane): S < 1.7 mg/mL | Approximate Solubility ([12]; IPAc): S < 1.3 mg/mL | Approximate Solubility ([12]; MIBK): S < 1.5 mg/mL | Approximate Solubility ([12]; MTBE): S < 1.0 mg/mL | Approximate Solubility ([12]; MeOAc): S < 0.9 mg/mL | Approximate Solubility ([12]; MeOH): S > 31 mg/mL | Approximate Solubility ([12]; NMP): S > 24 mg/mL | Approximate Solubility ([12]; Toluene): S < 1.4 mg/mL
Compound: CC1(C(N)=O)CCC(n2c(Nc3c(Cl)cc(Cl)cc3Cl)nc3cnc(NC4CCOCC4F)nc32)CC1.Cl (centres unmarked) [anhydrate/amorphous starting material]

DVS wt gain [2]: ~3.6% wt | hygroscopicity (in words) [2]: moderately hygroscopic | mass change ([2]; from 0% RH to 95% RH at 25° C.): 3.6 wt %
Compound: CC1(C(N)=O)CCC(n2c(Nc3c(Cl)cc(Cl)cc3Cl)nc3cnc(NC4CCOCC4F)nc32)CC1.Cl (centres unmarked) [starting material HCl Salt Form]

solid form after compression [1]: still Form Y | hygroscopicity (in words) [2]: slightly hygroscopic | water uptake [2]: about 2.1 % w/w
Compound: CC1(C(N)=O)CCC(n2c(Nc3c(Cl)cc(Cl)cc3Cl)nc3cnc(NC4CCOCC4F)nc32)CC1.O=C(O)CC(O)(CC(=O)O)C(=O)O (centres unmarked) [Form Y]

DVS water uptake [2]: ~2.1 wt % water
Compound: CC1(C(N)=O)CCC(n2c(Nc3c(Cl)cc(Cl)cc3Cl)nc3cnc(NC4CCOCC4F)nc32)CC1.O=C(O)CC(O)(CC(=O)O)C(=O)O (centres unmarked) [Y]

DVS water uptake [2]: ~1.6 wt % water
Compound: CC1(C(N)=O)CCC(n2c(Nc3c(Cl)cc(Cl)cc3Cl)nc3cnc(NC4CCOCC4F)nc32)CC1.O=C(O)CC(O)(CC(=O)O)C(=O)O (centres unmarked) [Z]
